# Source: ChEMBL document CHEMBL3885861, “Open TG-GATES”
# Species: Rattus norvegicus
# Assay: Open TG-GATES - Regimen: Daily Repeat
# Type: toxicity, organism-based, Sprague-Dawley
# Set-up: regimen Daily Repeat, gender Male, age 6 weeks
# Conditions: in vivo, po, 20 mg/kg, route gavage, dose level Low; for APTT / Bas / Eos / Fbg / Hb / Ht / Lym / MCH / MCHC / MCV / Mono / Neu / PT / Plat / RBC / Ret / WBC: tissue Blood; for KIDNEY_L / KIDNEY_R / KIDNEY_TOTAL: tissue Kidney; for LIVER: tissue Liver; for A/G / ALP / ALT / AST / BUN / CRE / Ca / Cl / DBIL / GLC / IP / K / LDH / Na / PL / RALB / TBIL / TC / TG / TP / gamma-GTP: tissue Plasma
smiles,measurement,setting,value
CCc1oc2ccccc2c1C(=O)c1cc(Br)c(O)c(Br)c1 [BENZBROMARONE],TERMINAL_BW,"72 h, time 3 day",239.2 g
same,APTT,"72 h, time 3 day",16.2 s
same,Bas,"72 h, time 3 day",0%
same,Eos,"72 h, time 3 day",1%
same,Fbg,"72 h, time 3 day",233.6 mg/dL
same,Hb,"72 h, time 3 day",13.8 g/dL
same,Ht,"72 h, time 3 day",41%
same,Lym,"72 h, time 3 day",78.8%
same,MCH,"72 h, time 3 day",22.4 pg
same,MCHC,"72 h, time 3 day",33.7%
same,MCV,"72 h, time 3 day",66.3 fL
same,Mono,"72 h, time 3 day",7%
same,Neu,"72 h, time 3 day",13.2%
same,PT,"72 h, time 3 day",11.8 s
same,Plat,"72 h, time 3 day",112.4 x10_4/uL
same,RBC,"72 h, time 3 day",619.6 x10_4/ul
same,Ret,"72 h, time 3 day",7.4%
same,WBC,"72 h, time 3 day",116.5 x10_2/uL
same,KIDNEY_L,"72 h, time 3 day",1.1 g
same,KIDNEY_R,"72 h, time 3 day",1.1 g
same,KIDNEY_TOTAL,"72 h, time 3 day",2.2 g
same,LIVER,"72 h, time 3 day",12.8 g
same,A/G,"72 h, time 3 day",2.1
same,ALP,"72 h, time 3 day",818.8 IU/L
same,ALT,"72 h, time 3 day",31.2 IU/L
same,AST,"72 h, time 3 day",59.8 IU/L
same,BUN,"72 h, time 3 day",18.6 mg/dL
same,CRE,"72 h, time 3 day",0.6 mg/dL
same,Ca,"72 h, time 3 day",10.4 mg/dL
same,Cl,"72 h, time 3 day",105 meq/L
same,DBIL,"72 h, time 3 day",0.008 mg/dL
same,GLC,"72 h, time 3 day",189.2 mg/dL
same,IP,"72 h, time 3 day",7.7 mg/dL
same,K,"72 h, time 3 day",4.9 meq/L
same,LDH,"72 h, time 3 day",90.2 IU/L
same,Na,"72 h, time 3 day",139.5 meq/L
same,PL,"72 h, time 3 day",158.8 mg/dL
same,RALB,"72 h, time 3 day",4 g/dL
same,TBIL,"72 h, time 3 day",0.3 mg/dL
same,TC,"72 h, time 3 day",84.2 mg/dL
same,TG,"72 h, time 3 day",114.2 mg/dL
same,TP,"72 h, time 3 day",6 g/dL
same,gamma-GTP,"72 h, time 3 day",0.8 IU/L
same,TERMINAL_BW,"[…], time 7 day",269 g
same,TERMINAL_BW,"[…], time 14 day",309.9 g
same,TERMINAL_BW,"[…], time 28 day",378.9 g
same,APTT,"[…], time 7 day",16.8 s
same,Bas,"[…], time 7 day",0%
same,Eos,"[…], time 7 day",1%
same,Fbg,"[…], time 7 day",244.4 mg/dL
same,Hb,"[…], time 7 day",14.2 g/dL
same,Ht,"[…], time 7 day",42%
same,Lym,"[…], time 7 day",79.8%
same,MCH,"[…], time 7 day",21.2 pg
same,MCHC,"[…], time 7 day",33.9%
same,MCV,"[…], time 7 day",62.6 fL
same,Mono,"[…], time 7 day",5.8%
same,Neu,"[…], time 7 day",13.4%
same,PT,"[…], time 7 day",11.9 s
same,Plat,"[…], time 7 day",113.1 x10_4/uL
same,RBC,"[…], time 7 day",670.8 x10_4/ul
same,Ret,"[…], time 7 day",5.9%
same,WBC,"[…], time 7 day",102 x10_2/uL
same,APTT,"[…], time 14 day",16.5 s
same,Bas,"[…], time 14 day",0%
same,Eos,"[…], time 14 day",1%
same,Fbg,"[…], time 14 day",228.8 mg/dL
same,Hb,"[…], time 14 day",14.4 g/dL
same,Ht,"[…], time 14 day",43.4%
same,Lym,"[…], time 14 day",81.4%
same,MCH,"[…], time 14 day",20.8 pg
same,MCHC,"[…], time 14 day",33.3%
same,MCV,"[…], time 14 day",62.5 fL
same,Mono,"[…], time 14 day",6.2%
same,Neu,"[…], time 14 day",11.2%
same,PT,"[…], time 14 day",11.7 s
same,Plat,"[…], time 14 day",104.8 x10_4/uL
same,RBC,"[…], time 14 day",694.6 x10_4/ul
same,Ret,"[…], time 14 day",4.4%
same,WBC,"[…], time 14 day",128.4 x10_2/uL
same,APTT,"[…], time 28 day",16.9 s
same,Bas,"[…], time 28 day",0%
same,Eos,"[…], time 28 day",1.4%
same,Fbg,"[…], time 28 day",223.4 mg/dL
same,Hb,"[…], time 28 day",15.4 g/dL
same,Ht,"[…], time 28 day",45.8%
same,Lym,"[…], time 28 day",85.4%
same,MCH,"[…], time 28 day",19.3 pg
same,MCHC,"[…], time 28 day",33.6%
same,MCV,"[…], time 28 day",57.6 fL
same,Mono,"[…], time 28 day",4.6%
same,Neu,"[…], time 28 day",8.6%
same,PT,"[…], time 28 day",12.1 s
same,Plat,"[…], time 28 day",101.2 x10_4/uL
same,RBC,"[…], time 28 day",795.8 x10_4/ul
same,Ret,"[…], time 28 day",2.8%
same,WBC,"[…], time 28 day",139.2 x10_2/uL
same,KIDNEY_L,"[…], time 7 day",1.2 g
same,KIDNEY_R,"[…], time 7 day",1.2 g
same,KIDNEY_TOTAL,"[…], time 7 day",2.4 g
same,KIDNEY_L,"[…], time 14 day",1.2 g
same,KIDNEY_R,"[…], time 14 day",1.3 g
same,KIDNEY_TOTAL,"[…], time 14 day",2.5 g
same,KIDNEY_L,"[…], time 28 day",1.5 g
same,KIDNEY_R,"[…], time 28 day",1.5 g
same,KIDNEY_TOTAL,"[…], time 28 day",2.9 g
same,LIVER,"[…], time 7 day",14.3 g
same,LIVER,"[…], time 14 day",15.3 g
same,LIVER,"[…], time 28 day",17.3 g
same,A/G,"[…], time 7 day",1.9
same,ALP,"[…], time 7 day",819.4 IU/L
same,ALT,"[…], time 7 day",34.6 IU/L
same,AST,"[…], time 7 day",61.8 IU/L
same,BUN,"[…], time 7 day",20 mg/dL
same,CRE,"[…], time 7 day",0.6 mg/dL
same,Ca,"[…], time 7 day",10.4 mg/dL
same,Cl,"[…], time 7 day",107.9 meq/L
same,DBIL,"[…], time 7 day",0.008 mg/dL
same,GLC,"[…], time 7 day",187.8 mg/dL
same,IP,"[…], time 7 day",7.9 mg/dL
same,K,"[…], time 7 day",4.9 meq/L
same,LDH,"[…], time 7 day",92 IU/L
same,Na,"[…], time 7 day",138.5 meq/L
same,PL,"[…], time 7 day",163.8 mg/dL
same,RALB,"[…], time 7 day",4 g/dL
same,TBIL,"[…], time 7 day",0.3 mg/dL
same,TC,"[…], time 7 day",82 mg/dL
same,TG,"[…], time 7 day",139.6 mg/dL
same,TP,"[…], time 7 day",6.2 g/dL
same,gamma-GTP,"[…], time 7 day",1 IU/L
same,A/G,"[…], time 14 day",1.8
same,ALP,"[…], time 14 day",708.6 IU/L
same,ALT,"[…], time 14 day",29.4 IU/L
same,AST,"[…], time 14 day",57.2 IU/L
same,BUN,"[…], time 14 day",19.6 mg/dL
same,CRE,"[…], time 14 day",0.6 mg/dL
same,Ca,"[…], time 14 day",10.4 mg/dL
same,Cl,"[…], time 14 day",107.5 meq/L
same,DBIL,"[…], time 14 day",0.002 mg/dL
same,GLC,"[…], time 14 day",191.8 mg/dL
same,IP,"[…], time 14 day",7.2 mg/dL
same,K,"[…], time 14 day",4.8 meq/L
same,LDH,"[…], time 14 day",88 IU/L
same,Na,"[…], time 14 day",140.3 meq/L
same,PL,"[…], time 14 day",168.2 mg/dL
same,RALB,"[…], time 14 day",4.1 g/dL
same,TBIL,"[…], time 14 day",0.3 mg/dL
same,TC,"[…], time 14 day",86 mg/dL
same,TG,"[…], time 14 day",139.4 mg/dL
same,TP,"[…], time 14 day",6.3 g/dL
same,gamma-GTP,"[…], time 14 day",2 IU/L
same,A/G,"[…], time 28 day",2
same,ALP,"[…], time 28 day",589.8 IU/L
same,ALT,"[…], time 28 day",30.6 IU/L
same,AST,"[…], time 28 day",57.4 IU/L
same,BUN,"[…], time 28 day",20.6 mg/dL
same,CRE,"[…], time 28 day",0.5 mg/dL
same,Ca,"[…], time 28 day",9.9 mg/dL
same,Cl,"[…], time 28 day",107.3 meq/L
same,DBIL,"[…], time 28 day",0.008 mg/dL
same,GLC,"[…], time 28 day",192 mg/dL
same,IP,"[…], time 28 day",6.6 mg/dL
same,K,"[…], time 28 day",4.4 meq/L
same,LDH,"[…], time 28 day",92.2 IU/L
same,Na,"[…], time 28 day",140.6 meq/L
same,PL,"[…], time 28 day",154.4 mg/dL
same,RALB,"[…], time 28 day",4.2 g/dL
same,TBIL,"[…], time 28 day",0.3 mg/dL
same,TC,"[…], time 28 day",75.6 mg/dL
same,TG,"[…], time 28 day",140 mg/dL
same,TP,"[…], time 28 day",6.4 g/dL
same,gamma-GTP,"[…], time 28 day",1.8 IU/L
